Test results reported in the supplement of paper PMC10307832.

Assays:
Assay in all cases: relative viability (nuclei count vs DMSO), 5 days (fraction); higher = more cells survive
[1] = system: HCC-44
Summary of the method: (§1)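 Relative viability divides the nuclei count in treated wells by that in vehicle wells. Lung cancer cell lines were seeded in 1536-well plates, dosed by pin tool the next day, and fixed and stained after 5 days in one step with final 0.05% Triton X-100, 1% formaldehyde and 1 ug/ml Hoechst. Dosing was a single drug or a fixed anchor-drug dose plus five library-drug doses (not always all listed) in √10 steps, and values are medians of duplicate plates imaged at 4×.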

[2] = system: LCLC-97TM1
Summary of the method: as §1

[3] = system: NCI-H2085
Summary of the method: as §1

[4] = system: EPLC-272H
Summary of the method: as §1

[5] = system: NCI-H1666
Summary of the method: as §1

[6] = system: NCI-H647
Summary of the method: as §1

[7] = system: HCC-827
Summary of the method: as §1

[8] = system: COR-L 105
Summary of the method: as §1

[9] = system: NCI-H650
Summary of the method: as §1

[10] = system: NCI-H2170
Summary of the method: as §1

[11] = system: NCI-H1437
Summary of the method: as §1

[12] = system: BEN
Summary of the method: as §1

[13] = system: NCI-H2087
Summary of the method: as §1

[14] = system: 201T
Summary of the method: as §1

[15] = system: LU99A
Summary of the method: as §1

[16] = system: LOU-NH91
Summary of the method: as §1

[17] = system: SW 1573
Summary of the method: as §1

[18] = system: H3255
Summary of the method: as §1

[19] = system: NCI-H1975
Summary of the method: as §1

[20] = system: PC-3 [JPC-3]
Summary of the method: as §1

[21] = system: EKVX
Summary of the method: as §1

Q: O=c1cc(N2CCOCC2)oc2c(-c3cccc4c3sc3ccccc34)cccc12 + CS(=O)(=O)N1CCN(Cc2cc3nc(-c4cccc5[nH]ncc45)nc(N4CCOCC4)c3s2)CC1 [Pictilisib] (partner 1 µM) was tested. Which relative viability ([1]; first compound 0.01 µM) did it give?
A: The relative viability was 0.638.

Q: What about the relative viability ([1]; first compound 0.03162 µM) of the same compound?
A: The relative viability was 0.659.

Q: What about the relative viability ([1]; first compound 0.1 µM) of the same compound?
A: Its relative viability is 1.87.

Q: And the relative viability ([1]; first compound 0.3162 µM)?
A: The relative viability was 0.543.

Q: And the relative viability ([1]; first compound 1 µM)?
A: The relative viability was 0.549.

Q: What about the relative viability ([2]; first compound 0.01 µM) of the same compound?
A: Its relative viability is 0.177.

Q: And the relative viability ([2]; first compound 0.03162 µM)?
A: Its relative viability is 0.271.

Q: And the relative viability ([2]; first compound 0.3162 µM)?
A: The relative viability was 0.233.

Q: What about the relative viability ([2]; first compound 1 µM) of the same compound?
A: Its relative viability is 0.145.

Q: What about the relative viability ([3]; first compound 0.01 µM) of the same compound?
A: The relative viability was 0.469.

Q: What about the relative viability ([3]; first compound 0.03162 µM) of the same compound?
A: Its relative viability is 0.467.

Q: What about the relative viability ([3]; first compound 0.1 µM) of the same compound?
A: Its relative viability is 0.553.

Q: And the relative viability ([3]; first compound 0.3162 µM)?
A: The relative viability was 0.464.

Q: And the relative viability ([3]; first compound 1 µM)?
A: The relative viability was 0.405.

Q: And the relative viability ([4]; first compound 0.01 µM)?
A: Its relative viability is 0.108.

Q: And the relative viability ([4]; first compound 0.03162 µM)?
A: The relative viability was 0.242.

Q: And the relative viability ([4]; first compound 0.3162 µM)?
A: Its relative viability is 0.374.

Q: What about the relative viability ([4]; first compound 1 µM) of the same compound?
A: Its relative viability is 0.31.

Q: What about the relative viability ([5]; first compound 0.01 µM) of the same compound?
A: The relative viability was 0.443.

Q: What about the relative viability ([5]; first compound 0.03162 µM) of the same compound?
A: Its relative viability is 0.483.

Q: What about the relative viability ([5]; first compound 0.1 µM) of the same compound?
A: The relative viability was 0.504.

Q: And the relative viability ([5]; first compound 0.3162 µM)?
A: Its relative viability is 0.412.

Q: And the relative viability ([5]; first compound 1 µM)?
A: The relative viability was 0.339.

Q: And the relative viability ([6]; first compound 0.01 µM)?
A: The relative viability was 0.437.

Q: And the relative viability ([6]; first compound 0.3162 µM)?
A: Its relative viability is 0.578.

Q: What about the relative viability ([6]; first compound 1 µM) of the same compound?
A: The relative viability was 0.439.

Q: What about the relative viability ([7]; first compound 0.01 µM) of the same compound?
A: Its relative viability is 1.04.

Q: And the relative viability ([7]; first compound 0.03162 µM)?
A: Its relative viability is 0.809.

Q: And the relative viability ([7]; first compound 0.1 µM)?
A: The relative viability was 1.05.

Q: What about the relative viability ([7]; first compound 0.3162 µM) of the same compound?
A: Its relative viability is 1.01.

Q: What about the relative viability ([7]; first compound 1 µM) of the same compound?
A: The relative viability was 0.997.

Q: And the relative viability ([8]; first compound 0.01 µM)?
A: Its relative viability is 0.347.

Q: What about the relative viability ([8]; first compound 0.03162 µM) of the same compound?
A: Its relative viability is 0.394.

Q: What about the relative viability ([8]; first compound 0.1 µM) of the same compound?
A: The relative viability was 0.49.

Q: What about the relative viability ([8]; first compound 0.3162 µM) of the same compound?
A: Its relative viability is 0.422.

Q: What about the relative viability ([8]; first compound 1 µM) of the same compound?
A: Its relative viability is 0.439.

Q: And the relative viability ([9]; first compound 0.01 µM)?
A: The relative viability was 0.907.

Q: And the relative viability ([9]; first compound 0.03162 µM)?
A: The relative viability was 1.

Q: And the relative viability ([9]; first compound 0.3162 µM)?
A: Its relative viability is 0.896.

Q: What about the relative viability ([9]; first compound 1 µM) of the same compound?
A: Its relative viability is 1.04.

Q: And the relative viability ([10]; first compound 0.01 µM)?
A: Its relative viability is 0.299.

Q: What about the relative viability ([10]; first compound 0.03162 µM) of the same compound?
A: Its relative viability is 0.331.

Q: And the relative viability ([10]; first compound 0.1 µM)?
A: Its relative viability is 0.369.

Q: What about the relative viability ([10]; first compound 0.3162 µM) of the same compound?
A: The relative viability was 0.375.

Q: What about the relative viability ([10]; first compound 1 µM) of the same compound?
A: Its relative viability is 0.344.

Q: What about the relative viability ([11]; first compound 0.01 µM) of the same compound?
A: The relative viability was 0.455.

Q: And the relative viability ([11]; first compound 0.03162 µM)?
A: The relative viability was 0.456.

Q: What about the relative viability ([11]; first compound 0.1 µM) of the same compound?
A: Its relative viability is 0.542.

Q: What about the relative viability ([11]; first compound 0.3162 µM) of the same compound?
A: Its relative viability is 0.478.

Q: What about the relative viability ([11]; first compound 1 µM) of the same compound?
A: The relative viability was 0.412.

Q: What about the relative viability ([12]; first compound 0.01 µM) of the same compound?
A: Its relative viability is 0.593.

Q: What about the relative viability ([12]; first compound 0.03162 µM) of the same compound?
A: Its relative viability is 0.579.

Q: What about the relative viability ([12]; first compound 0.1 µM) of the same compound?
A: The relative viability was 0.593.

Q: And the relative viability ([12]; first compound 0.3162 µM)?
A: The relative viability was 0.655.

Q: And the relative viability ([12]; first compound 1 µM)?
A: Its relative viability is 0.535.

Q: What about the relative viability ([13]; first compound 0.01 µM) of the same compound?
A: The relative viability was 0.745.

Q: And the relative viability ([13]; first compound 0.03162 µM)?
A: Its relative viability is 0.861.

Q: And the relative viability ([13]; first compound 0.1 µM)?
A: Its relative viability is 0.851.

Q: And the relative viability ([13]; first compound 0.3162 µM)?
A: Its relative viability is 0.783.

Q: And the relative viability ([13]; first compound 1 µM)?
A: Its relative viability is 1.

Q: What about the relative viability ([14]; first compound 0.01 µM) of the same compound?
A: The relative viability was 0.698.

Q: What about the relative viability ([14]; first compound 0.03162 µM) of the same compound?
A: The relative viability was 0.67.

Q: What about the relative viability ([14]; first compound 0.1 µM) of the same compound?
A: The relative viability was 0.692.

Q: And the relative viability ([14]; first compound 0.3162 µM)?
A: The relative viability was 0.705.

Q: And the relative viability ([14]; first compound 1 µM)?
A: Its relative viability is 0.661.

Q: And the relative viability ([15]; first compound 0.01 µM)?
A: The relative viability was 0.384.

Q: What about the relative viability ([15]; first compound 0.03162 µM) of the same compound?
A: Its relative viability is 0.3.

Q: What about the relative viability ([15]; first compound 0.1 µM) of the same compound?
A: Its relative viability is 0.333.

Q: And the relative viability ([15]; first compound 0.3162 µM)?
A: The relative viability was 0.367.

Q: What about the relative viability ([15]; first compound 1 µM) of the same compound?
A: The relative viability was 0.343.

Q: And the relative viability ([16]; first compound 0.01 µM)?
A: The relative viability was 0.476.

Q: And the relative viability ([16]; first compound 0.03162 µM)?
A: Its relative viability is 0.533.

Q: And the relative viability ([16]; first compound 0.1 µM)?
A: The relative viability was 0.525.

Q: And the relative viability ([16]; first compound 0.3162 µM)?
A: The relative viability was 0.514.

Q: What about the relative viability ([16]; first compound 1 µM) of the same compound?
A: The relative viability was 0.531.

Q: What about the relative viability ([17]; first compound 0.01 µM) of the same compound?
A: Its relative viability is 0.549.

Q: And the relative viability ([17]; first compound 0.03162 µM)?
A: The relative viability was 0.489.

Q: What about the relative viability ([17]; first compound 0.1 µM) of the same compound?
A: The relative viability was 0.48.

Q: What about the relative viability ([17]; first compound 0.3162 µM) of the same compound?
A: Its relative viability is 0.452.

Q: What about the relative viability ([17]; first compound 1 µM) of the same compound?
A: Its relative viability is 0.471.

Q: What about the relative viability ([18]; first compound 0.01 µM) of the same compound?
A: The relative viability was 0.5.

Q: And the relative viability ([18]; first compound 0.03162 µM)?
A: Its relative viability is 0.513.

Q: What about the relative viability ([18]; first compound 0.1 µM) of the same compound?
A: The relative viability was 0.48.

Q: And the relative viability ([18]; first compound 0.3162 µM)?
A: Its relative viability is 0.45.

Q: What about the relative viability ([18]; first compound 1 µM) of the same compound?
A: The relative viability was 0.416.

Q: What about the relative viability ([19]; first compound 0.01 µM) of the same compound?
A: The relative viability was 0.272.

Q: What about the relative viability ([19]; first compound 0.03162 µM) of the same compound?
A: Its relative viability is 0.307.

Q: What about the relative viability ([19]; first compound 0.1 µM) of the same compound?
A: The relative viability was 0.287.

Q: What about the relative viability ([19]; first compound 0.3162 µM) of the same compound?
A: The relative viability was 0.305.

Q: And the relative viability ([19]; first compound 1 µM)?
A: The relative viability was 0.28.

Q: And the relative viability ([20]; first compound 0.01 µM)?
A: Its relative viability is 0.751.

Q: What about the relative viability ([20]; first compound 0.03162 µM) of the same compound?
A: The relative viability was 0.747.

Q: What about the relative viability ([20]; first compound 0.1 µM) of the same compound?
A: The relative viability was 0.711.

Q: What about the relative viability ([20]; first compound 0.3162 µM) of the same compound?
A: The relative viability was 0.727.

Q: What about the relative viability ([20]; first compound 1 µM) of the same compound?
A: Its relative viability is 0.739.

Q: And the relative viability ([21]; first compound 0.01 µM)?
A: Its relative viability is 0.418.

Q: What about the relative viability ([21]; first compound 0.03162 µM) of the same compound?
A: The relative viability was 0.496.

Q: What about the relative viability ([21]; first compound 0.1 µM) of the same compound?
A: Its relative viability is 0.507.

Q: And the relative viability ([21]; first compound 0.3162 µM)?
A: Its relative viability is 0.439.

Q: And the relative viability ([21]; first compound 1 µM)?
A: The relative viability was 0.431.
